# From PubChem BioAssay (NCI)
#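 How tested: cells in 96-well plates exposed to compound for 48 hours at five concentrations. Definition used: TGI = concentration required for complete inhibition of growth.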
# Experiments:
# Assay in all cases: NCI anticancer screen, dose series, 48 h
# 786-0 renal = tested on: 786-0 renal
# A498 renal = tested on: A498 renal
# A549 NSCLC = tested on: A549 NSCLC
# ACHN renal = tested on: ACHN renal
# BT-549 breast = tested on: BT-549 breast
# CAKI-1 renal = tested on: CAKI-1 renal
# COLO 205 colon = tested on: COLO 205 colon
# DU-145 prostate = tested on: DU-145 prostate
# EKVX NSCLC = tested on: EKVX NSCLC
# HCC-2998 colon = tested on: HCC-2998 colon
# HCT-116 colon = tested on: HCT-116 colon
# HCT-15 colon = tested on: HCT-15 colon
# HL-60(TB) leukemia = tested on: HL-60(TB) leukemia
# HOP-62 NSCLC = tested on: HOP-62 NSCLC
# HS 578T breast = tested on: HS 578T breast
# HT29 colon = tested on: HT29 colon
# IGROV1 ovarian = tested on: IGROV1 ovarian
# K-562 leukemia = tested on: K-562 leukemia
# KM12 colon = tested on: KM12 colon
# LOX IMVI melanoma = tested on: LOX IMVI melanoma
# M14 melanoma = tested on: M14 melanoma
# MALME-3M melanoma = tested on: MALME-3M melanoma
# MCF7 breast = tested on: MCF7 breast
# MDA-MB-231 breast = tested on: MDA-MB-231 breast
# MDA-MB-435 = tested on: MDA-MB-435
# MDA-N = tested on: MDA-N
# NCI-H226 lung = tested on: NCI-H226 lung
# NCI-H460 lung = tested on: NCI-H460 lung
# NCI-H522 lung = tested on: NCI-H522 lung
# NCI/ADR-RES ovarian = tested on: NCI/ADR-RES ovarian
# OVCAR-3 ovarian = tested on: OVCAR-3 ovarian
# OVCAR-4 ovarian = tested on: OVCAR-4 ovarian
# OVCAR-5 ovarian = tested on: OVCAR-5 ovarian
# OVCAR-8 ovarian = tested on: OVCAR-8 ovarian
# PC-3 prostate = tested on: PC-3 prostate
# RXF 393 renal = tested on: RXF 393 renal
# SF-268 CNS = tested on: SF-268 CNS
# SF-539 CNS = tested on: SF-539 CNS
# SK-MEL-2 melanoma = tested on: SK-MEL-2 melanoma
# SK-MEL-28 melanoma = tested on: SK-MEL-28 melanoma
# SK-MEL-5 melanoma = tested on: SK-MEL-5 melanoma
# SK-OV-3 ovarian = tested on: SK-OV-3 ovarian
# SN12C renal = tested on: SN12C renal
# SNB-19 CNS = tested on: SNB-19 CNS
# SNB-75 CNS = tested on: SNB-75 CNS
# SR leukemia = tested on: SR leukemia
# SW-620 colon = tested on: SW-620 colon
# T-47D breast = tested on: T-47D breast
# TK-10 renal = tested on: TK-10 renal
# U251 CNS = tested on: U251 CNS
# UACC-257 melanoma = tested on: UACC-257 melanoma
# UACC-62 melanoma = tested on: UACC-62 melanoma
# UO-31 renal = tested on: UO-31 renal
# CCRF-CEM leukemia = tested on: CCRF-CEM leukemia
# HOP-92 NSCLC = tested on: HOP-92 NSCLC
# MOLT-4 leukemia = tested on: MOLT-4 leukemia
# NCI-H23 lung = tested on: NCI-H23 lung
# RPMI-8226 leukemia = tested on: RPMI-8226 leukemia
structure (smiles),measurement,setting,value
Cc1cc(S(=O)(=O)NC2=NCC(C)(C)CN2)c(S)cc1Cl,TGI,786-0 renal,> 100 µM
same,TGI,A498 renal,> 100 µM
same,TGI,A549 NSCLC,49.7 µM
same,TGI,ACHN renal,71.6 µM
same,TGI,BT-549 breast,> 100 µM
same,TGI,CAKI-1 renal,> 100 µM
same,TGI,COLO 205 colon,> 100 µM
same,TGI,DU-145 prostate,> 100 µM
same,TGI,EKVX NSCLC,> 100 µM
same,TGI,HCC-2998 colon,> 100 µM
same,TGI,HCT-116 colon,75.8 µM
same,TGI,HCT-15 colon,> 100 µM
same,TGI,HL-60(TB) leukemia,62.1 µM
same,TGI,HOP-62 NSCLC,> 100 µM
same,TGI,HS 578T breast,87.6 µM
same,TGI,HT29 colon,46.3 µM
same,TGI,IGROV1 ovarian,> 100 µM
same,TGI,K-562 leukemia,80.5 µM
same,TGI,KM12 colon,> 100 µM
same,TGI,LOX IMVI melanoma,31.2 µM
same,TGI,M14 melanoma,> 100 µM
same,TGI,MALME-3M melanoma,> 100 µM
same,TGI,MCF7 breast,> 100 µM
same,TGI,MDA-MB-231 breast,> 100 µM
same,TGI,MDA-MB-435,85.1 µM
same,TGI,MDA-N,83.4 µM
same,TGI,NCI-H226 lung,94.8 µM
same,TGI,NCI-H460 lung,> 100 µM
same,TGI,NCI-H522 lung,81.2 µM
same,TGI,NCI/ADR-RES ovarian,> 100 µM
same,TGI,OVCAR-3 ovarian,> 100 µM
same,TGI,OVCAR-4 ovarian,64.5 µM
same,TGI,OVCAR-5 ovarian,51.1 µM
same,TGI,OVCAR-8 ovarian,71.8 µM
same,TGI,PC-3 prostate,> 100 µM
same,TGI,RXF 393 renal,> 100 µM
same,TGI,SF-268 CNS,> 100 µM
same,TGI,SF-539 CNS,> 100 µM
same,TGI,SK-MEL-2 melanoma,> 100 µM
same,TGI,SK-MEL-28 melanoma,> 100 µM
same,TGI,SK-MEL-5 melanoma,33.7 µM
same,TGI,SK-OV-3 ovarian,> 100 µM
same,TGI,SN12C renal,> 100 µM
same,TGI,SNB-19 CNS,> 100 µM
same,TGI,SNB-75 CNS,> 100 µM
same,TGI,SR leukemia,> 100 µM
same,TGI,SW-620 colon,36.8 µM
same,TGI,T-47D breast,> 100 µM
same,TGI,TK-10 renal,> 100 µM
same,TGI,U251 CNS,89 µM
same,TGI,UACC-257 melanoma,> 100 µM
same,TGI,UACC-62 melanoma,61.9 µM
same,TGI,UO-31 renal,99.8 µM
COc1cc(-c2ccccc2)cn2c1nc1ccccc12,TGI,786-0 renal,34.7 µM
same,TGI,A549 NSCLC,51.4 µM
same,TGI,ACHN renal,49.2 µM
same,TGI,BT-549 breast,32.9 µM
same,TGI,CAKI-1 renal,52.3 µM
same,TGI,CCRF-CEM leukemia,70.7 µM
same,TGI,COLO 205 colon,39.1 µM
same,TGI,DU-145 prostate,> 100 µM
same,TGI,HCC-2998 colon,33.7 µM
same,TGI,HCT-116 colon,39.5 µM
same,TGI,HCT-15 colon,43.2 µM
same,TGI,HL-60(TB) leukemia,53.2 µM
same,TGI,HOP-62 NSCLC,43.6 µM
same,TGI,HOP-92 NSCLC,32 µM
same,TGI,HS 578T breast,71.4 µM
same,TGI,HT29 colon,35.5 µM
same,TGI,IGROV1 ovarian,55.9 µM
same,TGI,K-562 leukemia,67.1 µM
same,TGI,KM12 colon,36.1 µM
same,TGI,LOX IMVI melanoma,52.4 µM
same,TGI,M14 melanoma,43.4 µM
same,TGI,MALME-3M melanoma,41.9 µM
same,TGI,MCF7 breast,35.4 µM
same,TGI,MDA-MB-231 breast,49.8 µM
same,TGI,MDA-MB-435,43.4 µM
same,TGI,MDA-N,37.3 µM
same,TGI,MOLT-4 leukemia,45.9 µM
same,TGI,NCI-H226 lung,39.7 µM
same,TGI,NCI-H23 lung,> 100 µM
same,TGI,NCI-H460 lung,49.4 µM
same,TGI,NCI-H522 lung,40.6 µM
same,TGI,NCI/ADR-RES ovarian,66.7 µM
same,TGI,OVCAR-3 ovarian,40.8 µM
same,TGI,OVCAR-5 ovarian,31.7 µM
same,TGI,OVCAR-8 ovarian,64.4 µM
same,TGI,PC-3 prostate,50.8 µM
same,TGI,RPMI-8226 leukemia,62 µM
same,TGI,RXF 393 renal,34.6 µM
same,TGI,SF-268 CNS,79.4 µM
same,TGI,SF-539 CNS,50.4 µM
same,TGI,SK-MEL-2 melanoma,44 µM
same,TGI,SK-MEL-28 melanoma,33.2 µM
same,TGI,SK-MEL-5 melanoma,37.9 µM
same,TGI,SK-OV-3 ovarian,59.7 µM
same,TGI,SN12C renal,46.2 µM
same,TGI,SNB-19 CNS,69.3 µM
same,TGI,SNB-75 CNS,43.2 µM
same,TGI,SR leukemia,99.6 µM
same,TGI,SW-620 colon,> 100 µM
same,TGI,T-47D breast,83.6 µM
same,TGI,U251 CNS,52.2 µM
same,TGI,UACC-257 melanoma,47.5 µM
same,TGI,UACC-62 melanoma,43.9 µM
same,TGI,UO-31 renal,32.4 µM
